Active and inactive are the calls of the source. The rule behind the calls is not given here.
Experiments:
Liver microsomes [1] = assay: Antioxidant activity in albino Wistar rat liver microsomes assessed as inhibition of NADPH-dependent lipid peroxidation at 1000 uM; assay type: functional; conditions: Microsome
[2] = test system: Radical scavenging activity; assay: Antioxidant activity assessed as DPPH free radical scavenging activity after 30 mins; assay type: functional
Liver microsomes [3] = assay: Antioxidant activity in rat liver microsomes assessed as inhibition of ethoxyresorufin O-deethylase activity at 1000 uM; assay type: functional; conditions: Microsome
[4] = Antioxidant activity assessed as inhibition of superoxide radical anion formation at 0.1 mM; assay type: functional
Liver microsomes [5] = assay: Antioxidant activity in rat liver microsomes assessed as inhibition of ethoxyresorufin O-deethylase activity; assay type: functional, Microsome

Question: What does the source list for `Cc1cc(C(C)(C)C)c(O)c(C(C)(C)C)c1` [BUTYLATED HYDROXYTOLUENE]?
Answer: Activity (Liver microsomes [1]): 5.68 nmol/mg/min; IC50 [2]: 54 µM

Question: Which Activity (Liver microsomes [3]) does the source give for `CNC(=S)NNC(=O)Cn1c(-c2ccc(OCc3ccccc3)cc2)nc2ccccc21` here?
Answer: The Activity was 28.6 pmol/mg/min.

Question: And the Activity (Liver microsomes [1])?
Answer: Its Activity is 96.6 nmol/mg/min.

Question: And the IC50 [2]?
Answer: The IC50 was 74 µM.

Question: What about the inhibition [4] of the same compound?
Answer: Its inhibition is 5%.

Question: Which Activity (Liver microsomes [3]) does the source give for `COc1ccc(-c2nc3cc(Cl)c(Cl)cc3n2Cc2n[nH]c(=S)n2C)cc1OC` here?
Answer: Its Activity is 18.3 pmol/mg/min.

Question: What about the Activity (Liver microsomes [1]) of the same compound?
Answer: Its Activity is 27.5 nmol/mg/min.

Question: What about the IC50 [2] of the same compound?
Answer: Its IC50 is 271 µM.

Question: What about the Activity [4] of the same compound?
Answer: The Activity was “inactive”.

Question: For `COc1ccc(NC(=S)NNC(=O)Cn2c(-c3ccncc3)nc3ccccc32)cc1`, which IC50 [2] is on record?
Answer: Its IC50 is 12 µM.

Question: With `CNc1nnc(Cn2c(-c3ccc(O)cc3)nc3ccccc32)s1` as the compound, how does the Activity (Liver microsomes [3]) read?
Answer: The Activity was 36.1 pmol/mg/min.

Question: And the Activity (Liver microsomes [1])?
Answer: The Activity was 129 nmol/mg/min.

Question: What about the IC50 [2] of the same compound?
Answer: The IC50 was > 1000 µM.

Question: And the inhibition [4]?
Answer: The inhibition was 5%.

Question: Which results are given for `CNc1nnc(Cn2c(-c3ccc(OC)c(OC)c3)nc3cc(Cl)c(Cl)cc32)s1`?
Answer: Activity (Liver microsomes [3]): 12.2 pmol/mg/min; inhibition (Liver microsomes [3]): 66%; Activity (Liver microsomes [1]): 11.8 nmol/mg/min; inhibition (Liver microsomes [1]): 28%; IC50 [2]: > 1000 µM; inhibition [4]: 31%

Question: With `O=C(Cn1c(-c2ccncc2)nc2ccccc21)NNC(=S)Nc1ccccc1` as the compound, how does the IC50 [2] read?
Answer: The IC50 was 13 µM.

Question: What does the source list for `CNc1nnc(Cn2c(-c3ccc(OC)cc3)nc3ccccc32)s1`?
Answer: Activity (Liver microsomes [3]): 34.3 pmol/mg/min; Activity (Liver microsomes [1]): 14.4 nmol/mg/min; inhibition (Liver microsomes [1]): 11%; IC50 [2]: > 1000 µM; inhibition [4]: 5%

Question: With `Cn1c(Cn2c(-c3ccc(Cl)cc3)nc3ccccc32)n[nH]c1=S` as the compound, how does the Activity (Liver microsomes [3]) read?
Answer: Its Activity is 7.89 pmol/mg/min.

Question: What about the inhibition (Liver microsomes [3]) of the same compound?
Answer: Its inhibition is 81%.

Question: And the Activity (Liver microsomes [1])?
Answer: Its Activity is 26.6 nmol/mg/min.

Question: What about the IC50 [2] of the same compound?
Answer: Its IC50 is 462 µM.

Question: What about the IC50 (Liver microsomes [5]) of the same compound?
Answer: Its IC50 is 450 µM.

Question: What about the Activity [4] of the same compound?
Answer: The Activity was “inactive”.

Question: With `COc1ccc(-c2nc3ccccc3n2Cc2n[nH]c(=S)n2C)cc1` as the compound, how does the Activity (Liver microsomes [3]) read?
Answer: Its Activity is 15.8 pmol/mg/min.

Question: What about the Activity (Liver microsomes [1]) of the same compound?
Answer: Its Activity is 23.1 nmol/mg/min.

Question: And the IC50 [2]?
Answer: The IC50 was 140 µM.

Question: And the inhibition [4]?
Answer: Its inhibition is 5%.

Question: With `CNC(=S)NNC(=O)Cn1c(-c2ccc(Cl)cc2)nc2ccccc21` as the compound, how does the Activity (Liver microsomes [3]) read?
Answer: The Activity was 28.3 pmol/mg/min.

Question: What about the Activity (Liver microsomes [1]) of the same compound?
Answer: Its Activity is 13.1 nmol/mg/min.

Question: What about the inhibition (Liver microsomes [1]) of the same compound?
Answer: The inhibition was 20%.

Question: What about the IC50 [2] of the same compound?
Answer: The IC50 was 30 µM.

Question: What about the inhibition [4] of the same compound?
Answer: Its inhibition is 38%.

Question: What does the source list for `Cn1c(Cn2c(-c3ccc(OCc4ccccc4)cc3)nc3ccccc32)n[nH]c1=S`?
Answer: Activity (Liver microsomes [3]): 18 pmol/mg/min; Activity (Liver microsomes [1]): 69.6 nmol/mg/min; IC50 [2]: 605 µM; inhibition [4]: 5%

Question: For `CNC(=S)NNC(=O)Cn1c(-c2ccccc2)nc2ccccc21`, which Activity (Liver microsomes [3]) is on record?
Answer: The Activity was 51 pmol/mg/min.

Question: And the Activity (Liver microsomes [1])?
Answer: Its Activity is 19.2 nmol/mg/min.

Question: And the IC50 [2]?
Answer: The IC50 was 26 µM.

Question: And the inhibition [4]?
Answer: Its inhibition is 22%.

Question: Which results are given for `CNC(=S)NNC(=O)Cn1c(-c2ccc(OC)cc2)nc2ccccc21`?
Answer: Activity (Liver microsomes [3]): 34.5 pmol/mg/min; Activity (Liver microsomes [1]): 16.1 nmol/mg/min; IC50 [2]: 43 µM; Activity [4]: inactive

Question: Which results are given for `CNc1nnc(Cn2c(-c3ccc(Cl)cc3)nc3ccccc32)s1`?
Answer: Activity (Liver microsomes [3]): 2.46 pmol/mg/min; Activity (Liver microsomes [1]): 16.1 nmol/mg/min; inhibition [4]: 21%

Question: For `Cn1c(=O)c2c(ncn2C)n(C)c1=O` [CAFFEINE], which Activity (Liver microsomes [3]) is on record?
Answer: Its Activity is 8.31 pmol/mg/min.

Question: What about the inhibition (Liver microsomes [3]) of the same compound?
Answer: The inhibition was 80%.

Question: What about the IC50 (Liver microsomes [5]) of the same compound?
Answer: The IC50 was 520 µM.

Question: With `CNC(=S)NNC(=O)Cn1c(-c2ccc(OC)c(OC)c2)nc2cc(Cl)c(Cl)cc21` as the compound, how does the Activity (Liver microsomes [3]) read?
Answer: Its Activity is 12.3 pmol/mg/min.

Question: What about the inhibition (Liver microsomes [3]) of the same compound?
Answer: The inhibition was 70%.

Question: What about the Activity (Liver microsomes [1]) of the same compound?
Answer: The Activity was 14.8 nmol/mg/min.

Question: What about the IC50 [2] of the same compound?
Answer: Its IC50 is 55 µM.

Question: What about the IC50 (Liver microsomes [5]) of the same compound?
Answer: Its IC50 is 840 µM.

Question: What about the inhibition [4] of the same compound?
Answer: Its inhibition is 26%.

From ChEMBL document CHEMBL1144752, “Synthesis and antioxidant properties of novel N-methyl-1,3,4-thiadiazol-2-amine and 4-methyl-2H-1,2,4-triazole-3(4H)-thione derivatives of benzimidazole class” (Bioorg Med Chem, 2008)
